This passage reports IC50 results from US12187723B2 (BRISTOL-MYERS SQUIBB COMPANY, priority 2019, dated 2025).

The structures appear in SMILES notation.

The assay has as its target T1, human TLR8 (Homo sapiens, UniProt Q9NR97).
T1 construct: host or cells: HEK-Blue cells
T1 sequence (Q9NR97 27-1041): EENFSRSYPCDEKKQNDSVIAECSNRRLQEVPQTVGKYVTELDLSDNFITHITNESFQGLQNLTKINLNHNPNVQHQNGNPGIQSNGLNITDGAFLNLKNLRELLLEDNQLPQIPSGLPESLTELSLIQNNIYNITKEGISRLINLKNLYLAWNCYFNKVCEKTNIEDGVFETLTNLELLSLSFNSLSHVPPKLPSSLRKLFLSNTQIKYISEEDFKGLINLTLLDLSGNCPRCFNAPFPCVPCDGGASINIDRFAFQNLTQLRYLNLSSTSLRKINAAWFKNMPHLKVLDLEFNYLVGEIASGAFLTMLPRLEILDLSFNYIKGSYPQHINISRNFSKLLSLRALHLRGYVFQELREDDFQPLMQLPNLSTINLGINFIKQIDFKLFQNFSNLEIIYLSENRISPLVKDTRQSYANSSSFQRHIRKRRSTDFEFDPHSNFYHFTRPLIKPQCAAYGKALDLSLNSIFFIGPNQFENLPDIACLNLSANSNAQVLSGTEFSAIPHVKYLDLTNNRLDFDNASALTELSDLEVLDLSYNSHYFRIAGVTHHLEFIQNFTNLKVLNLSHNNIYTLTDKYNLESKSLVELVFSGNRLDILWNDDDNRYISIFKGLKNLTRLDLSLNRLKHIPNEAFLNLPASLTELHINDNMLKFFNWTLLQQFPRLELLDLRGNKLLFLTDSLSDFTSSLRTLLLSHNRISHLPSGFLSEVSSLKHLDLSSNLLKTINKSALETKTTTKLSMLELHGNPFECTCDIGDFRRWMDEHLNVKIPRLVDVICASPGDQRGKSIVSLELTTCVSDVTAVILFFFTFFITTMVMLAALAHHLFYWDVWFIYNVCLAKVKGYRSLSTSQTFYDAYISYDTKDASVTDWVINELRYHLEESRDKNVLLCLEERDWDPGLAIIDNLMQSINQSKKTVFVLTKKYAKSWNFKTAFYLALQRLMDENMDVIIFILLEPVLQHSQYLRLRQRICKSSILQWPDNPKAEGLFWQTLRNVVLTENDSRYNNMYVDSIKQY
Put plainly: TLR8 inhibition reporter assay (HEK-Blue SEAP). The following applies: HEK-Blue cells overexpressing human TLR8, R848 15.9 μM, 22 hour incubation. The format is cell-based. The protocol:
TLR7/8/9 Inhibition Reporter Assays
HEK-Blue™-cells (Invivogen) overexpressing human TLR7, TLR8 or TLR9 receptors were used for screening inhibitors of these receptors using an inducible SEAP (secreted embryonic alkaline phosphatase) reporter gene under the control of the IFN-β minimal promoter fused to five NF-κB and AP-1-binding sites. Briefly, cells are seeded into Greiner 384 well plates (15000 cells per well for TLR7, 20,000 for TLR8 and 25,000 for TLR9) and then treated with test compounds in DMSO to yield a final dose response concentration range of 0.05 nM-50 μM. After a 30 minute compound pre-treatment at room temperature, the cells are then stimulated with a TLR7 ligand (gardiquimod at a final concentration of 7.5 μM), TLR8 ligand (R848 at a final concentration of 15.9 μM) or TLR9 ligand (ODN2006 at a final concentration of 5 nM) to activate NF-κB and AP-1 which induce the production of SEAP. After a 22 hour incubation at 37° C., 5% CO2, SEAP levels are determined with the addition of HEK-Blue™ Detection reagent (Invivogen), a cell culture medium that allows for detection of SEAP, according to manufacturer's specifications. The percent inhibition is determined as the % reduction in the HEK-Blue signal present in wells treated with agonist plus DMSO alone compared to wells treated with a known inhibitor.
For orientation: A reporter such as luciferase makes a cellular process visible.
`CCC(CC)CN1CCC(n2c(=O)[nH]c3cc(-c4cc(OC)c5ncnn5c4)c(C(C)C)cc32)CC1` [Example 165, 1-(1-(2-ethylbutyl)piperidin-4-yl)-6-isopropyl-5-(8-methoxy-[1,2,4]triazolo[1,5-a]pyridin-6-yl)-1,3-dihydro-2H-benzo[d]imidazol-2-one] displayed an IC50 of 7.03 nM.

As for `CCN1CCC(n2c(=O)[nH]c3cc(-c4cc(C)c5ncnn5c4)cc(C)c32)CC1` [Example 108, 1-(1-ethylpiperidin-4-yl)-7-methyl-5-(8-methyl-[1,2,4]triazolo[1,5-a]pyridin-6-yl)-1,3-dihydro-2H-benzo[d]imidazol-2-one], it took 83.1 nM to reach half-maximal inhibition (IC50). Compared with the last molecule, the IC50 is about 12-fold higher.

`COc1cc(-c2cc3[nH]c(=O)n([C@@H]4CCCN(CC5CC5)C4)c3cc2C(C)C)cn2ncnc12` [Example 142, (R)-1-(1-(cyclopropylmethyl)piperidin-3-yl)-6-isopropyl-5-(8-methoxy-[1,2,4]triazolo[1,5-a]pyridin-6-yl)-1,3-dihydro-2H-benzo[d]imidazol-2-one] registered an IC50 of 2.2 nM.

On to `COc1cc(-c2cc3[nH]c(=O)n(C4CCN(CC(C)C)CC4)c3cc2C(C)C)cn2ncnc12` [Example 164, 1-(1-isobutylpiperidin-4-yl)-6-isopropyl-5-(8-methoxy-[1,2,4]triazolo[1,5-a]pyridin-6-yl)-1,3-dihydro-2H-benzo[d]imidazol-2-one], for which the IC50 is 9.67 nM.

The molecule `COc1cc(-c2cc3[nH]c(=O)n([C@H]4CCCN(C(C)C)C4)c3cc2C(C)C)cn2ncnc12` [Example 120, (S)-6-isopropyl-1-(1-isopropylpiperidin-3-yl)-5-(8-methoxy-[1,2,4]triazolo[1,5-a]pyridin-6-yl)-1,3-dihydro-2H-benzo[d]imidazol-2-one] displayed a half-maximal inhibitory concentration (IC50) of 0.8 nM.

As for `COc1cc(-c2cc3[nH]c(=O)n([C@H]4CCCN(C)C4)c3cc2C(C)C)cn2ncnc12` [Example 119, (S)-6-isopropyl-5-(8-methoxy-[1,2,4]triazolo[1,5-a]pyridin-6-yl)-1-(1-methylpiperidin-3-yl)-1,3-dihydro-2H-benzo[d]imidazol-2-one], the IC50 is 2.37 nM.

On to `CCC(CC)CN1CCC[C@@H](n2c(=O)[nH]c3cc(-c4cc(OC)c5ncnn5c4)c(C(F)(F)F)cc32)C1` [Example 117, (R)-1-(1-(2-ethylbutyl)piperidin-3-yl)-5-(8-methoxy-[1,2,4]triazolo[1,5-a]pyridin-6-yl)-6-(trifluoromethyl)-1,3-dihydro-2H-benzo[d]imidazol-2-one], for which half-maximal inhibition (IC50) was put at 33.3 nM.

Consider `COc1cc(-c2cc3[nH]c(=O)n([C@@H]4CCCN(C)C4)c3cc2C(F)(F)F)cn2ncnc12` [Example 114, (R)-5-(8-methoxy-[1,2,4]triazolo[1,5-a]pyridin-6-yl)-1-(1-methylpiperidin-3-yl)-6-(trifluoromethyl)-1,3-dihydro-2H-benzo[d]imidazol-2-one], for which the 50% inhibitory concentration (IC50) was 0.29 nM.

As for `COc1cc(-c2cc3[nH]c(=O)n(C4CCN(C5CCOCC5)CC4)c3cc2C(C)C)cn2ncnc12` [Example 158, 6-isopropyl-5-(8-methoxy-[1,2,4]triazolo[1,5-a]pyridin-6-yl)-1-(1-(tetrahydro-2H-pyran-4-yl)piperidin-4-yl)-1,3-dihydro-2H-benzo[d]imidazol-2-one], it took 16.2 nM to reach half-maximal inhibition (IC50).

Turning to `COc1cc(-c2cc3[nH]c(=O)n([C@H]4CCCN(CC5CCC5)C4)c3cc2C(C)C)cn2ncnc12` [Example 133, (S)-1-(1-(cyclobutylmethyl)piperidin-3-yl)-6-isopropyl-5-(8-methoxy-[1,2,4]triazolo[1,5-a]pyridin-6-yl)-1,3-dihydro-2H-benzo[d]imidazol-2-one], the IC50 turned out to be 5.9 nM.

Turning to `COc1cc(-c2cc3[nH]c(=O)n([C@@H]4CCCN(C5COC5)C4)c3cc2C(C)C)cn2ncnc12` [Example 135, (R)-6-isopropyl-5-(8-methoxy-[1,2,4]triazolo[1,5-a]pyridin-6-yl)-1-(1-(oxetan-3-yl)piperidin-3-yl)-1,3-dihydro-2H-benzo[d]imidazol-2-one], the IC50 is 20 nM. Compared with the last molecule, the IC50 is about 3.4-fold higher.

`COc1cc(-c2cc3[nH]c(=O)n([C@@H]4CCCN(C(C)C)C4)c3cc2C(C)C)cn2ncnc12` [Example 137, (R)-6-isopropyl-1-(1-isopropylpiperidin-3-yl)-5-(8-methoxy-[1,2,4]triazolo[1,5-a]pyridin-6-yl)-1,3-dihydro-2H-benzo[d]imidazol-2-one] gave an IC50 of 1.37 nM.

With `COc1cc(-c2cc3[nH]c(=O)n(C4CCN(CC5CCOC5)CC4)c3cc2C(C)C)cn2ncnc12` (stereo not drawn) [Example 160, 6-isopropyl-5-(8-methoxy-[1,2,4]triazolo[1,5-a]pyridin-6-yl)-1-(1-((tetrahydrofuran-3-yl)methyl)piperidin-4-yl)-1,3-dihydro-2H-benzo[d]imidazol-2-one], the concentration for half-maximal inhibition (IC50) stood at 5.62 nM.

The molecule `COc1cc(-c2cc3[nH]c(=O)n(C4CCN(C)CC4)c3cc2C(C)C)cn2ncnc12` [Example 154, 6-isopropyl-5-(8-methoxy-[1,2,4]triazolo[1,5-a]pyridin-6-yl)-1-(1-methylpiperidin-4-yl)-1,3-dihydro-2H-benzo[d]imidazol-2-one] displayed an IC50 of 1.52 nM.

The molecule `COCCN1CCC[C@@H](n2c(=O)[nH]c3cc(-c4cc(OC)c5ncnn5c4)c(C(F)(F)F)cc32)C1` [Example 118, (R)-5-(8-methoxy-[1,2,4]triazolo[1,5-a]pyridin-6-yl)-1-(1-(2-methoxyethyl)piperidin-3-yl)-6-(trifluoromethyl)-1,3-dihydro-2H-benzo[d]imidazol-2-one] showed an IC50 of 22.7 nM.

In turn, `Cc1c(-c2cc3[nH]c(=O)n([C@@H]4CCCN(CC5CCOCC5)C4)c3cc2C(C)C)cn2ncnc2c1C` [Example 149, (R)-5-(7,8-dimethyl-[1,2,4]triazolo[1,5-a]pyridin-6-yl)-6-isopropyl-1-(1-((tetrahydro-2H-pyran-4-yl)methyl)piperidin-3-yl)-1,3-dihydro-2H-benzo[d]imidazol-2-one] showed an IC50 of 4.58 nM.

In turn, `COc1cc(-c2cc3[nH]c(=O)n([C@@H]4CCCN(CC(C)(C)C)C4)c3cc2C(F)(F)F)cn2ncnc12` [Example 116, (R)-5-(8-methoxy-[1,2,4]triazolo[1,5-a]pyridin-6-yl)-1-(1-neopentylpiperidin-3-yl)-6-(trifluoromethyl)-1,3-dihydro-2H-benzo[d]imidazol-2-one] had a concentration for half-maximal inhibition (IC50) of 57.8 nM.

As to `COc1cc(-c2cc3[nH]c(=O)n([C@H]4CCCN(CC5CCOC5)C4)c3cc2C(C)C)cn2ncnc12` (stereo partly drawn) [Example 126, 6-isopropyl-5-(8-methoxy-[1,2,4]triazolo[1,5-a]pyridin-6-yl)-1-((3S)-1-((tetrahydrofuran-3-yl)methyl)piperidin-3-yl)-1,3-dihydro-2H-benzo[d]imidazol-2-one], 3.64 nM corresponded to half-maximal inhibition (IC50).

As to `Cc1c(-c2cc3[nH]c(=O)n([C@@H]4CCCN(C5COC5)C4)c3cc2C(C)C)cn2ncnc2c1C` [Example 146, (R)-5-(7,8-dimethyl-[1,2,4]triazolo[1,5-a]pyridin-6-yl)-6-isopropyl-1-(1-(oxetan-3-yl)piperidin-3-yl)-1,3-dihydro-2H-benzo[d]imidazol-2-one], the concentration for half-maximal inhibition (IC50) worked out at 6.05 nM.

`Cc1cc(-c2ccc3c(c2)[nH]c(=O)n3C2CCN(C(C)C)CC2)cn2ncnc12` [Example 5, 1-(1-isopropylpiperidin-4-yl)-5-(8-methyl-[1,2,4]triazolo[1,5-a]pyridin-6-yl)-1,3-dihydro-2H-benzo[d]imidazol-2-one] had an IC50 of more than 3130 nM.

On to `COCCN1CCC[C@@H](n2c(=O)[nH]c3cc(-c4cc(OC)c5ncnn5c4)c(C)cc32)C1` [Example 98, (R)-5-(8-methoxy-[1,2,4]triazolo[1,5-a]pyridin-6-yl)-1-(1-(2-methoxyethyl)piperidin-3-yl)-6-methyl-1,3-dihydro-2H-benzo[d]imidazol-2-one], for which the midpoint of inhibition, the IC50, lay at 60.6 nM.

By IC50 is commonly meant the concentration needed to halve the response being measured.
